Data on 1 compound can be found in article PMC7037447, “Syntheses of L-Rhamnose-Linked Amino Glycerolipids and Their Cytotoxic Activities against Human Cancer Cells” (Molecules, 2020).

Data set [1] has as its system JIMT-1. Kind of data set: MTS cell viability assay, 48 h. It is filed as cell-based, human. The conditions noted are these: Homo sapiens; JIMT-1, 48 h, MTS; read-out: CC50. Here is the method:
(§1) The cells were incubated with increasing concentrations of the compounds (0–30 µM) for 48 h followed by assessment of cell viability using the MTS assay. […] This compound carries a primary amino group at the sn-3 position of the glycerolipid and L-rhamno sugar at the sn-2 position via an α-rhamnosidic linkage.
(§2) The cell lines were cultured from frozen stocks originally obtained from ATCC (Manassas, VA, USA). MDA-MB-231, JIMT-1, DU145, MDA-MB-468, Hs578t and MDA-MB-453 were grown in DMEM medium supplemented with 10% FBS. BT-474 cells were grown in DMEM/F12 medium supplemented with 10% FBS. MiaPaCa2 was cultured in DMEM supplemented with 10% FBS and 2.5% horse serum. All the media contained penicillin/streptomycin. U-251 and U-87 in Eagle MEM supplemented by 10% FBS, 1% Non-essential amino acids, 1 mM sodium pyruvate and 2 mM glutamine. BT-549 was cultured in RPMI 1640 medium supplemented with 10% FBS.
(§3) The effects of the GAELs on the viability of the epithelial cancer cell lines were determined as previously described. Briefly, equal numbers of the cells were dispersed into 96-well plates. After 24 h, the cells were incubated with the compounds (0–30 µM) for 48 h. MTS reagent [3-(4,5-dimethylthiazol-2-yl)-5-(3-carboxymethoxyphenyl)-2-(4-sulfophenyl)-2H-tetrazolium, inner salt; Promega, Madison, WI, USA] (20% v/v) was subsequently added and the plates were incubated for 1–4 h in a CO2 incubator followed by measurement of the medium at OD490 with a plate reader (Molecular Devices). Wells with media but no cells were treated in similar fashion and the values utilized as blank.

The subject of data set [2] is BT549, MDA-MB-453, MDA-MB-468, and Hs578t (triple negative breast cancer lines). In words: MTS cell viability assay, 48 h, triple negative breast cancer lines. It is filed as cell-based, human. Conditions: with the exception of MDA-MB-453. Here is the method: Concentrations of compound 3 between 6–15 µM were sufficient to kill all the triple negative cell lines with the exception of MDA-MB-453 where viability was inhibited by 60% at the highest concentration tested. 30 µM of 3 was required for complete loss of viability of the hormone sensitive breast cancer BT474 cell line.
as §2
The effects of the GAELs on the viability of the epithelial cancer cell lines were determined as previously described. Briefly, equal numbers of the cells were dispersed into 96-well plates. After 24 h, the cells were incubated with the compounds (0–30 µM) for 48 h. […] (20% v/v) was subsequently added and the plates were incubated for 1–4 h in a CO2 incubator followed by measurement of the medium at OD490 with a plate reader (Molecular Devices). […]

The test system of data set [3] is MDA-MB-231. In words: MTS cell viability assay, 48 h. Type of data set: cell-based, human. Conditions: Homo sapiens; MDA-MB-231, 48 h, MTS; concentration decreasing cell viability by 50% relative to untreated control; read-out: CC50. As for the experimental part:
[…] […] This compound carries a primary amino group at the sn-3 position of the glycerolipid and L-rhamno sugar at the sn-2 position via an α-rhamnosidic linkage.
as §2
The effects of the GAELs on the viability of the epithelial cancer cell lines were determined as previously described. Briefly, equal numbers of the cells were dispersed into 96-well plates. […] MTS reagent [3-(4,5-dimethylthiazol-2-yl)-5-(3-carboxymethoxyphenyl)-2-(4-sulfophenyl)-2H-tetrazolium, inner salt; Promega, Madison, WI, USA] (20% v/v) was subsequently added and the plates were incubated for 1–4 h in a CO2 incubator followed by measurement of the medium at OD490 with a plate reader (Molecular Devices).

Data set [4] has as its system JIMT-1. Kind of data set: Cell membrane integrity, ethidium homodimer-1 (EthD-1) staining. The conditions noted are these: JIMT-1, 15 µM, 4–6 h. It is filed as cell-based. Here is the method: (§4) After determining that the mechanism of cell death of compound 3 is independent of caspases-mediated apoptosis, we evaluated if cell death was due to membrane disruption or lysis using the cell impermeant ethidium homodimer-1 (EthD-1) dye that emits red fluorescence upon binding to DNA [13, 14]. DU-145 and JIMT-1 were treated with compound 3 at 10 and 15 µM, respectively. After 4–6 h, the cells were treated with EthD-1 dye and monitored under fluorescence microscopy.
(§5) Equal numbers of JIMT-1 and DU145 cells were dispersed into 96-well plates. After 24 h the cells were incubated with varying concentration of compounds 3 or 4 (4–6 µM) for 5–6 h. Subsequently, 2 µM of the cell membrane impermeant dye, ethidium homodimer-1 (EthD-1 (Molecular Probes, Eugene, OR, USA) that emits red fluorescence upon binding to DNA was added and the cells analysed by fluorescence microscopy. EthD-1 staining was compared to negative controls with no treatment and positive control treated with 0.01% Triton X-100 for 10 min.
(§6) Figure 5 Evaluation of effect of compound 3 on cell membrane of DU-145 and JIMT-1 cell lines using cell impermeant ethidium homodimer-1 (EthD-1) dye that emits red fluorescence upon binding to DNA.

The subject of data set [5] is DU-145. The data set is described as above. It is filed as cell-based. Conditions: DU-145, 10 µM, 4–6 h. As for the experimental part: as §4, §5, §6
The subject of data set [6] is human epithelial cancer cell lines: breast (MDA-MB-231, JIMT-1), pancreas (MiaPaCa2) and prostate (DU-145, PC-3). In words: MTS cell viability assay, 48 h, across the panel of cell lines. Type of data set: cell-based. Conditions: 48 h, 48 h, MTS; for CC50: range or bound over all cell lines, read-out: CC50 values across the cell lines. As for the experimental part: as §1, §2, §3

In data set [7] the test system is PC-3. Kind of data set: MTS cell viability assay, 48 h. Type of data set: cell-based, human. Conditions: Homo sapiens; PC-3, 48 h, MTS; read-out: CC50. As for the experimental part: as §1, §3

The structures appear in SMILES notation. Where two headings read alike, the source gives them in different places.

Take `CCCCCCCCCCCCCCCCOCC(CN)OC1OC(C)C(O)C(O)C1O` [Compound 3, 3-Amino-1-O-hexadecyloxy-2R-(O–α-L-rhamnopyranosyl)-sn-glycerol]: the CC50 is 5.5 µM in data set [1]; 4.8 µM in data set [3]; 4.8 to 14 µM in data set [6] (Homo sapiens); 4.8 to 11 µM in data set [6]; 11 µM in data set [7]. For the same compound, the “Concentrations sufficient to kill all the triple negative cell lines” value in data set [2] fell in the range of 6 to 15 µM. Besides, the “Cell membrane lysis (EthD-1 staining)” value in data set [4] and in data set [5] was “no significant cell membrane lysis” each time. The “Concentration range giving greater than 90% loss of cell viability” value in data set [6] (all the cell lines) is 7.5 to 15.0 µM.
